Article PMC6508677, “Identification of druggable small molecule antagonists of the Plasmodium falciparum hexose transporter PfHT and assessment of ligand access to the glucose permeation pathway via FLAG-mediated protein engineering” (PLoS ONE, 2019)
Several values for one entry are separate records, joined by “and”; a condition that tells them apart may be missing. Equal values may be shown once. Read-outs that look alike come from different tables or passages of the source.

What was measured:
[1] = molecular target: T1, PfHT (Plasmodium falciparum, UniProt Q7KWJ5); experiment: [3H]-D-fructose uptake by HEK293 cells overexpressing PfHT; format: cell-based; parameters: expressed in transfected cells; host or cells: HEK293 (HEK293-FLIP, native hGLUT1 knocked down by shRNA)
T1 sequence (Q7KWJ5 1-504): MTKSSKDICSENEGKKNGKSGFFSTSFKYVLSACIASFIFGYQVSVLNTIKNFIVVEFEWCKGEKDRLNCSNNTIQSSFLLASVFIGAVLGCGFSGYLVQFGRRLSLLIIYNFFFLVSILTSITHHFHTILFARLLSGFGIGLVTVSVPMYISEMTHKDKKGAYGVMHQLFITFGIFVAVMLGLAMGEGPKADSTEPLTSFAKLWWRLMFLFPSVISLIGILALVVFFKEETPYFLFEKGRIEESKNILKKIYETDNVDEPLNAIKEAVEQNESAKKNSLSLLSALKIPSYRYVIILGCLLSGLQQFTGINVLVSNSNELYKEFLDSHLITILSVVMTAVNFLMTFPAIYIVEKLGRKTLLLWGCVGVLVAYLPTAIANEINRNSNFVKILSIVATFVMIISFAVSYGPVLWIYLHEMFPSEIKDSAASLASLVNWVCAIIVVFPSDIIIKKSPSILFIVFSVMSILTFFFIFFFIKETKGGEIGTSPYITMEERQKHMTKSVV
Text: Generation of HEK293 cells overexpressing PfHT and human GLUTs 1–4 were described elsewhere. Briefly, HEK293 cells were transfected with pcDNA3.1 FLII12Pglu-7006 (Addgene), containing the fluorescence resonance energy transfer (FRET) glucose sensor (HEK293-FLIP) and PfHT, human GLUT1 (hGLUT1), hGLUT2, hGLUT3, hGLUT4, hGLUT5 or hGLUT8 using Optifect (Life Technologies) according to manufacturer’s specifications. To increase retention of GLUT8 at the plasma membrane, the dileucine sorting signal E^7E^8XXXLL was modified to R^7R^8XXXLL as described in [17]. Stable transfectants were selected for G418 and hygromycin resistance to select for FRET sensor and hexose transporter, respectively. HEK293-FLIP cells were also used to generate cells stably transfected with FLAG-tagged PfHT (FTPfHT). FLAG tag ([…]) followed by a triple glycine linker and a tobacco etch virus (TEV) protease site (ENLYFQS) followed by a triple glycine linker was added to the N-terminus of PfHT via PCR [18] using Phusion Hot Start II High-Fidelity DNA Polymerase (Fisher Scientific). Single clones were selected by comparing their abilities to transport glucose as assayed via FRET and radiolabeled hexose uptake. In all cell lines, except for HEK293 cells overexpressing hGLUT1 and hGLUT5, native hGLUT1 was knocked down using shRNA as described elsewhere. Transcript levels of the individual GLUTs expressed in each cell line are as described in [13, 15] and in S1 Fig.
(§1) Glucose uptake by P. falciparum was performed essentially as described. P. falciparum strain 3D7 was cultured in 100 mm tissue culture dishes (Techno Plastic Products) in a 2% suspension of human erythrocytes and RPMI 1640 medium until reaching > 7.5% parasitemia. Cells were pelleted via centrifugation and resuspended in RPMI 1640 medium. To determine the uptake of radiolabeled glucose into the parasite, parasites were isolated from infected erythrocytes by permeablization with saponin (0.05 w/v), followed by centrifugation, aspiration of supernatant and washing of the pellet 3X with saline solution (135 mM NaCl, 2 mM KCl, 25 mM HEPES, 0.2 mM glucose and 1 mM MgCl2; pH 7.1) to remove cellular debris. WU-1 or DMSO vehicle were added to 100 μl parasites (resuspended in saline) 5 min prior to the addition of 100 μl [^14C]2-DOG (0.2- μCi/ml final concentration). 2-DG uptake was stopped after 2 min by layering the entire reaction over 300 μl of an oil mixture (5:4 mix of dibutyl phthalate / dinonyl phthalate) in Eppendorf tubes and centrifuged at 15,850 × g for 2 mins. The ratio of the estimated intracellular concentration of radiolabel relative to the extracellular concentration were calculated as described. Uptake of radiolabeled hexose into HEK293 cells was measured in glucose-free HBSS as described previously. Briefly, cells were plated at 400,000 cells/well overnight at 37°C in 24-well plates pre-treated with PEI. After 30-min incubation at 37°C in glucose-free HBSS in the presence of vehicle or increasing concentrations of compound, 2-DG uptake was measured in glucose-free HBSS for 4 min at 37°C. Cultures were washed in ice-cold 1X PBS and lysed in 0.1% Triton X-100 in 1X PBS. Radiolabeled hexose uptake was determined by liquid scintillation counting (Ultima Gold, Thermo Fisher) and normalized to total protein per well. Uptake data are plotted as percent uptake relative to vehicle-treated cells. Kinetic analyses were performed using the indicated concentrations of substrate and WU-1, with quenching of uptake after 1 min incubation. Incubation times had been previously determined as being in the linear range of time-dependent radiolabeled hexose uptake (2 min for 2-DG uptake into freed parasites; 2 and 4 min for D-Frc and 2-DG uptake HEK cell lines, respectively). Data were fit by least squares nonlinear regression analysis using GraphPad Prism 6.0 software.

[2] = tested on: P. falciparum strain 3D7 freed parasites; experiment: 2-DG uptake by isolated freed P. falciparum parasites; format: cell-based, Plasmodium falciparum
Procedure: as §1

With `Cc1ccc(S(=O)(=O)CCNC(=O)c2c(-c3c(Cl)cccc3Cl)noc2C)cc1` [WU-1, 3-(2,6-dichlorophenyl)-5-methyl-N-[2-(4-methylbenzenesulfonyl)ethyl]-1,2-oxazole-4-carboxamide] the IC50 ([1]; AVE IC50 (µM), PfHT, D-frc Uptake, average of Expt 1-3) was 4.99 µM, the remaining activity at 0.001 µM ([1]; HEK293, 2 min, read-out: D-frc Uptake AVE, PfHT, concentration 0.001 µM, Expt 1-3) was 101% and the remaining activity at 0.63 µM ([1]; HEK293, 2 min, read-out: D-frc Uptake AVE, PfHT, concentration 0.63 µM) was 80.7%. For the same molecule, the remaining activity at 1.25 µM ([1]; HEK293, 2 min, read-out: D-frc Uptake AVE, PfHT, concentration 1.25 µM) was 72.3%, the remaining activity at 2.5 µM ([1]; HEK293, 2 min, read-out: D-frc Uptake AVE, PfHT, concentration 2.50 µM) was 68.5% and the remaining activity at 5 µM ([1]; HEK293, 2 min, read-out: D-frc Uptake AVE, PfHT, concentration 5.00 µM) was 49.6%. For the same molecule, the remaining activity at 10 µM ([1]; HEK293, 2 min, read-out: D-frc Uptake AVE, PfHT, concentration 10.00 µM) was 37.9%, the remaining activity at 20 µM ([1]; HEK293, 2 min, read-out: D-frc Uptake AVE, PfHT, concentration 20.00 µM) was 22.3% and the remaining activity at 40 µM ([1]; HEK293, 2 min, read-out: D-frc Uptake AVE, PfHT, concentration 40.00 µM) was 15.6%. It also gave a remaining activity at 80 µM ([1]; HEK293, 2 min, read-out: D-frc Uptake AVE, PfHT, concentration 80.00 µM) of 10.7%, a remaining activity at 225 µM ([1]; HEK293, 2 min, read-out: D-frc Uptake AVE, PfHT, concentration 225.00 µM) of 8.85% and a remaining activity at 160 µM ([1]; HEK293, 2 min, read-out: D-frc Uptake AVE, PfHT, concentration […]) of 7.62%. For the same molecule, the IC50 ([1]; IC50 (µM), PfHT, D-frc Uptake, single experiments Expt 1-3) was 4.57 µM and 6.26 µM and 4.14 µM, the IC50 ([1]; IC50, D-fructose (Frc) uptake, PfHT cell line) was 5 ± 0.7 µM and the “Selectivity Index, Frc, PfHT line itself” value ([1]; reference value) was 1.0. For the same molecule, the “2-DG uptake by freed parasites (normalised to 100), AVE per experiment” value ([2]; 0.001 µM WU-1) was 100.00, the “2-DG uptake by freed parasites (normalised to 100), AVE per experiment” value ([2]; 8.33 µM WU-1) was 54.38 and 56.80 and 54.68 and the “2-DG uptake by freed parasites (normalised to 100), AVE per experiment” value ([2]; 25 µM WU-1) was 40.52 and 37.08 and 35.20. The “2-DG uptake by freed parasites (normalised to 100), AVE per experiment” value ([2]; 75 µM WU-1) was 20.23 and 31.42 and 24.43, the “2-DG uptake by freed parasites (normalised to 100), AVE per experiment” value ([2]; 225 µM WU-1) was 17.01 and 18.91 and 19.76 and the IC50 ([2]; Expt 1-3, read-out: IC50 for 2-DG uptake by freed parasites, individual experiments) was 6.6 µM and 4.5 µM. The IC50 ([2]; Plasmodium falciparum, 3D7, Expt 1-3, read-out: IC50 for 2-DG uptake by freed parasites, individual experiments) was 7.2 µM and the IC50 ([2]; Plasmodium falciparum, 3D7, isolated P. falciparum trophozoites, mean, read-out: IC50 for 2-DG uptake by freed parasites) was 6.1 ± 0.8 µM.
